Consider one compound from patent US20220211726A1, “UVEAL MELANOMA TREATMENT” (Katholieke Universiteit Leuven, priority 2019, published 2022).

The subject of assay [1] is uveal melanoma cell line (UM92.1). Description: IncuCyte Caspase 3/7 Green apoptosis assay. The format is cell-based. The settings on record: UM92.1, increasing concentrations of Tigecycline. As to the method:
(§1) For IncuCyte Proliferation Assays, cells were plated in 96-well plates (TPP) at the appropriate density (between 2.5×10^3, to 1.5×10^4). Cells were treated with increasing amounts of Tigecycline or Doxycycline and cultured for 72 h. Apoptotic cells were labelled with the IncuCyte Caspase 3/7 Green Apoptosis Assay Reagent (Essen BioScience). Four images per well were taken at 2-hour intervals using an IncuCyte ZOOM system (Essen BioScience). The percentage of cell confluency and fluorescent green counts indicating apoptotic cells were measured and analysed by the IncuCyte ZOOM software.

Assay [2] deals with uveal melanoma PDX model Mel-077. Description: Uveal melanoma PDX experiment, tumour volume. Type of assay: in vivo. The settings on record: Mel-077 PDX mice, Tigecycline 50 mg/kg daily i.p. monotreatment vs vehicle (DMSO), FIG. 5. As to the method: Tumour pieces were implanted subcutaneously in the interscapular fat pad of female NMRI nude, 4-week-old females. Once tumours reached 250 mm^3, the mice were enrolled into treatment cohorts. Mice were treated with Tigecycline (50 mg/kg) administered by daily i.p. injection. No specific randomization method was used.

Assay [3] concerns uveal melanoma (UM 92.1) cell line. Description: IncuCyte proliferation assay (% cell confluency). The settings on record: UM 92.1 (GNAQ mutant), increasing concentrations of Tigecycline, 72 h, FIG. 4. Type of assay: cell-based. As to the method: as §1

Regarding `CN(C)c1cc(NC(=O)CNC(C)(C)C)c(O)c2c1C[C@H]1C[C@H]3[C@H](N(C)C)C(O)=C(C(N)=O)C(=O)[C@@]3(O)C(O)=C1C2=O` [Tigecycline], the “apoptosis (activated caspase 3/7 staining)” value in assay [1] is on record as “no increase in apoptosis”. Besides, the “tumour growth / progression (tumour volume)” value in assay [2] was “sufficient to stabilise tumour growth and significantly delay progression”. Besides, in assay [3], the “cell growth (measured as % of cell confluency)” value is “significant and dose-dependent decrease in cell growth”.
